Biological target: HPK1 (Homo sapiens, UniProt Q92918)
Assay: HPK1 Kinase Binding Assay
Conditions: LanthaScreen tracer 222, Eu-Anti GST antibody, active HPK1, one hour incubation at 25° C.
Protocol: A stock solution of 1 mM test compound was prepared in DMSO. The compound plate was prepared by 3-fold and 11-point serial dilutions. 0.1 μL of the compound in DMSO was transferred from the compound plate to the white 384 well polystyrene plates. The assay buffer contained 50 mM HEPES, pH 7.5, 0.01% Tween-20, 5 mM MgCl2, 0.01% BSA, and 5 mM DTT. 5 μl of 4 nM active HPK1 (SignalChem M23-11G) prepared in the buffer was added to the plate. The enzyme concentration given was based on the given stock concentration reported by the vender. 5 μl of 18 nM tracer 222 (ThermoFisher PV6121) and 4 nM LanthaScreen Eu-Anti GST antibody (ThermoFisher PV5595) were added. After one hour incubation at 25° C., the plates were read on a PHERAstar FS plate reader (BMG Labtech). Ki values were determined.

Sequence of HPK1 (Q92918 whole entry, looked up): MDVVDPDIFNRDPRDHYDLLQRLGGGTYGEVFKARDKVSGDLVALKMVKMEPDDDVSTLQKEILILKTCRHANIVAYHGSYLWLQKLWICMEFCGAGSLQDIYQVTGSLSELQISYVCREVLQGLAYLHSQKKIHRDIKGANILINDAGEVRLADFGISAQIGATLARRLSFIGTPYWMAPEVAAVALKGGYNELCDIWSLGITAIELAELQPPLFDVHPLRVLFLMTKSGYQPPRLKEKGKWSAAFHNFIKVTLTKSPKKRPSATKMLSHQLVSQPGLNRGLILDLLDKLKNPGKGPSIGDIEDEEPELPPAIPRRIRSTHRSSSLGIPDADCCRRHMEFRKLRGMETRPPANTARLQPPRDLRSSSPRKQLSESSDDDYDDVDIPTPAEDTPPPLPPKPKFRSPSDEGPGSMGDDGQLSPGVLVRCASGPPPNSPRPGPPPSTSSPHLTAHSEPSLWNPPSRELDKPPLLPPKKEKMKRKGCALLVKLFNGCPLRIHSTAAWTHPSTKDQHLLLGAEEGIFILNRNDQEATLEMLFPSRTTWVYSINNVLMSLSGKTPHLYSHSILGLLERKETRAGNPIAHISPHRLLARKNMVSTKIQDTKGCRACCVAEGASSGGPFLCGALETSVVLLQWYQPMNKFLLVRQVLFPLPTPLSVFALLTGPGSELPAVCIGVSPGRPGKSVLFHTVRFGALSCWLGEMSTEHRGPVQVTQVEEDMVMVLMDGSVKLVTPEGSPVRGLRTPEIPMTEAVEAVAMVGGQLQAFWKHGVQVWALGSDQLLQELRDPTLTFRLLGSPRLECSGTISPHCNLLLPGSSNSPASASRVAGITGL

Row | SMILES | Ki [nM]
1 | CN1CCN(c2ncc(-c3n[nH]c4cnc(-c5c(F)cc(CC#N)cc5F)nc34)cn2)CC1 [Example 105, 2-(3,5-Difluoro-4-(3-(2-(4-methylpiperazin-1-yl)pyrimidin-5-yl)-1H-pyrazolo[4,3-d]pyrimidin-5-yl)phenyl)acetonitrile] | ≤ 100
2 | CNCc1cc(F)c(-c2ncc3[nH]nc(-c4ccc(NC5CCN(S(C)(=O)=O)CC5)cc4)c3n2)c(F)c1 [Example 72, 7V-(4-(5-(2,6-Difluoro-4-((methylamino)methyl)phenyl)-1H-pyrazolo[4,3-d]pyrimidin-3-yl)phenyl)-1-(methylsulfonyl)piperidin-4-amine] | ≤ 100
3 | CNCc1cc(F)c(-c2ncc3[nH]nc(-c4ccc(N5CCCCC5)nc4)c3n2)c(C(F)(F)F)c1 [Example 76, 1-(3-Fluoro-4-(3-(6-(piperidin-1-yl)pyridin-3-yl)-1H-pyrazolo[4,3-d]pyrimidin-5-yl)-5-(trifluoromethyl)phenyl)-N-methylmethanamine] | ≤ 100
